The numbers were not newly measured in article PMC10576142, “Intrinsic structural dynamics dictate enzymatic activity and inhibition” (Proceedings of the National Academy of Sciences of the …, 2023), which cites them from elsewhere.

The data set relates to HDAC8. The arrangement: method as in PMID 24079912.

With `CC(/C=C/C(=O)NO)=C\[C@@H](C)C(=O)c1ccc(N(C)C)cc1` [TCSA, trichostatin A], the overall off-rate was 0.1 s⁻¹.
